Assay results taken from patent US20090197917A1, “USE OF RIMONABANT FOR THE PREPARATION OF MEDICAMENTS USEFUL IN THE PREVENTION AND TREATMENT OF TYPE 2 DIABETES” (SANOFI-AVENTIS, priority 2005, published 2009).

Legend:
fa/fa obese Zucker rats = assay: Long-term (12 months) treatment of obese Zucker rats: protection of the pancreas; assay type: in vivo, rat
Source text: The effect of a long-term (12 months) treatment with rimonabant was studied in Zucker rats with established obesity.
The fa/fa strain of obese Zucker rats is characterized by hyperphagia, obesity, dyslipidaemia and type 2 diabetes.
After 12 months, the fa/fa obese Zucker rats treated with the vehicle show a marked hypertrophy of the pancreas (+38%, p<0.05).

[1] = system: obese subjects with type 2 diabetes; assay: Rio-Diabetes clinical study, 12 months, rimonabant 20 mg versus placebo; assay type: in vivo, human
Experimental: The Rio-Diabetes clinical study, carried out over 12 months in 1045 obese subjects with type 2 diabetes treated by monotherapy (metformin or sulfonylureas) compares the effect of rimonabant at the dose of 20 mg versus a placebo product in weight reduction; the improvement of glycosylated haemoglobin (HbAlc), of glycemia, of insulinaemia and lipid parameters. A low-calorie diet (deficit of 600 Kcal/day) is prescribed for all the patients and is introduced 4 weeks before the start of the treatment period.
The insulin resistance is evaluated by the HOMA (Homeostasis Model Assessment) test described by Matthew D. R. et al. in Diabetologica, 1985, 28, 412-419.

[2] = logistic regression analysis with weight as co-variable
[3] = rimonabant 20 mg, 12 months, p<0.001

## Cc1c(C(=O)NN2CCCCC2)nn(-c2ccc(Cl)cc2Cl)c1-c1ccc(Cl)cc1 [rimonabant, N-piperidino-5-(4-chlorophenyl)-1-(2,4-dichlorophenyl)-4-methylpyrazole-3-carboxamide]
fa/fa obese Zucker rats; 3 mg/kg/day, vehicle +38%
  hypertrophy of the pancreas: +17%
fa/fa obese Zucker rats; 10 mg/kg/day, p<0.05, vehicle +38%
  hypertrophy of the pancreas: +1%
[1]; [2]
  effect independent of the weight loss for the improvement in HDL-c: about 55%
  effect independent of the weight loss for the improvement in HbAlc: about 55%
  effect independent of the weight loss for the triglycerides: about 35%
[1]; rimonabant 20 mg
  time after which the loss of weight appears stabilized: 6 months
[1]; rimonabant 20 mg group, 12 months, p<0.001 vs placebo
  decrease in glycemia on an empty stomach: 0.64 ± 1.96 mmol/L
[1]; rimonabant 20 mg, 12 months
  improvement in insulin resistance evaluated by the HOMA test: −0.5±5.7%
[1]; [3]
  decrease of triglycerides compared with the placebo group: more than 16.4±3.3%
  difference in the reduction of the level of HbAlc compared with the placebo: 0.7±0.1%
  greater weight loss than that observed in the placebo group: 4.2 ± 0.4 kg
  increase in the HDL-c level compared with the placebo: greater than 8.4±1.2%
[1]; rimonabant 20 mg, 12 months, p=0.247 vs placebo
  reduction of insulinaemia on an empty stomach: 0.7±9.9 μIU/mL
[1]; rimonabant 20 mg, p=0.020
  reduction in the systolic blood pressure: 0.8±12.8 mmHg
[1]; rimonabant 20 mg, p=0.060
  reduction in the diastolic blood pressure: 1.9±8.2 mmHg
[1]; rimonabant 20 mg, then maintained up to 12 months
  time at which the reduction of HbAlc is maximum: 9 months
[1]; rimonabant combined with a sulfonylurea, p<0.001
  HbAlc difference compared with the placebo: 0.7±0.1%
[1]; rimonabant combined with metformin, p<0.001
  HbAlc difference compared with the placebo: 0.7±0.1%
[1]; rimonabant-metformin combination, p<0.001
  difference in weight loss compared with the placebo group: 4.3 ± 0.4 kg
[1]; rimonabant-sulfonylurea combination, p<0.001
  difference in weight loss compared with the placebo group: 3.1 ± 0.5 kg
